# Assay results reported in US20080306076A1, “MODULATION OF CHEMOSENSORY RECEPTORS AND LIGANDS ASSOCIATED THEREWITH” (SENOMYX, INC., priority 2007, published 2008).
# Residue numbers refer to the chain shown, from its start.
# Tests used:
# hT1R1 Y220A = biological target: T1, hT1R1 Y220A (Homo sapiens, UniProt Q7RTX1, Y220A); experiment: Mutagenesis study, hT1R1 mutant Y220A; format: cell-based; conditions: Y220 mutant, FIG. 11
# T1 construct: expressed in transfected cells; host or cells: HEK293, transient transfection
# T1 sequence (Q7RTX1 21-841 Y220A): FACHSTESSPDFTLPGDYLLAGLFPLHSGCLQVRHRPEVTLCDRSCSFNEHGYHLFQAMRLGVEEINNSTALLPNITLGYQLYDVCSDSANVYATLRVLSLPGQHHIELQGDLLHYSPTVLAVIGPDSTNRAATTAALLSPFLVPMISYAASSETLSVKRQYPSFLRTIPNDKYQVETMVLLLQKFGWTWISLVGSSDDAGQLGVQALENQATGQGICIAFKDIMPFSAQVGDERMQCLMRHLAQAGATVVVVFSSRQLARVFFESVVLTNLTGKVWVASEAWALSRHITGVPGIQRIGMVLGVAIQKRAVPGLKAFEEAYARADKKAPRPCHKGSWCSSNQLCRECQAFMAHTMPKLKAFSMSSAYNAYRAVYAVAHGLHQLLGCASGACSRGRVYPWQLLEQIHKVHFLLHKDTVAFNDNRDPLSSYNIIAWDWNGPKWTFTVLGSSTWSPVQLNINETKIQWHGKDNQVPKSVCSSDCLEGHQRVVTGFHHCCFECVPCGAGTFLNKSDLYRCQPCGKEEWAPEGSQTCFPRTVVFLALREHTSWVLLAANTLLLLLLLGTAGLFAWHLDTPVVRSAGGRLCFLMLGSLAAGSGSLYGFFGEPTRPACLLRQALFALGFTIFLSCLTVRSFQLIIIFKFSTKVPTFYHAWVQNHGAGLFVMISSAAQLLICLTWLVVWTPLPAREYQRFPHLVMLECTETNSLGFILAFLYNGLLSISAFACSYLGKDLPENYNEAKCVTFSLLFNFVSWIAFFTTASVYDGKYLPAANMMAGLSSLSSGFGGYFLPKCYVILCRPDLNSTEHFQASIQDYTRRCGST
# T1 sequence (Q923K1 21-858 partner): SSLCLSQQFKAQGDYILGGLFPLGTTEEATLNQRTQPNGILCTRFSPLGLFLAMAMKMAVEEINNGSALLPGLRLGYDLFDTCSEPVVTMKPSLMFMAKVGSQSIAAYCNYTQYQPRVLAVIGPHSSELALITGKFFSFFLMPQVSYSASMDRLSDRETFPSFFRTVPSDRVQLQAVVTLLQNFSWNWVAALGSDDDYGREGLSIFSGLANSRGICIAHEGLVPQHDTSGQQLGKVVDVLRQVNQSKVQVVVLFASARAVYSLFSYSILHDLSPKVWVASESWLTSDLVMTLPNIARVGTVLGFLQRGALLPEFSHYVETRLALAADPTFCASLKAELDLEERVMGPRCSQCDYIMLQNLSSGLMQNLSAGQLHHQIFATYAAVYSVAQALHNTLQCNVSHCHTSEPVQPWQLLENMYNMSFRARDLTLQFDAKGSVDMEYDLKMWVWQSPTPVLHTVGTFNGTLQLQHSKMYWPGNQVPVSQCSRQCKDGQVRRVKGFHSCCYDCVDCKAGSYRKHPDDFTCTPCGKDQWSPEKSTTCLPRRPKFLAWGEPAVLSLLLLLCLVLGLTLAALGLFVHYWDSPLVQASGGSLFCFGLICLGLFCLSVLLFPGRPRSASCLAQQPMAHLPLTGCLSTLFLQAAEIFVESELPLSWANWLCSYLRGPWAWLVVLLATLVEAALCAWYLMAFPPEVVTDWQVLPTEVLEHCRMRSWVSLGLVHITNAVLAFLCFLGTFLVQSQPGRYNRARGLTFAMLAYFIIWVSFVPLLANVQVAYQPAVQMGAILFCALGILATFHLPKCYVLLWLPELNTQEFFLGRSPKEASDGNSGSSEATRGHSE
# Description: (§1) In order to further define the interaction sites of umami stimuli, we performed site-directed mutagenesis on human T1R1 VFT. The mutagenesis was done using the routine PCR-based method. […] were transiently transfected into HEK293 cell together with the rat T1R3 wild type cDNA, and the transfected cells were characterized using an automated FLIPR machine or a calcium imaging system as described in our previous patent applications.
# hT1R1 T149S = biological target: T2, hT1R1 T149S (Homo sapiens, UniProt Q7RTX1, T149S); experiment: Mutagenesis study, hT1R1 mutant T149S; format: cell-based; conditions: 0.25 mM of L-Glu, FIG. 12
# T2 construct: expressed in transfected cells; host or cells: HEK293, transient transfection
# T2 sequence (Q7RTX1 21-841 T149S): T1 sequence (Q7RTX1 21-841 Y220A) with T129S, A200Y
# T2 sequence (Q923K1 21-858 partner): T1 sequence (Q923K1 21-858 partner)
# Description: as §1
structure (smiles),measurement,setting,value
"N[C@@H](CCC(=O)O)C(=O)O [L-Glu, L-glutamate]",activity against L-Glu,hT1R1 Y220A,significant reduced activity
same,activity against L-Glu compared to the wild type,hT1R1 T149S,increased activity
